Reference: ChEMBL document CHEMBL4118101 (Bioorg Med Chem, 2018)
≈ marks a conversion by molar mass, not a printed value. Calls of active or inactive are those of the source. No cut-off for these calls is given here.

Columns and labels:
[1] = test system: Erythrocyte; assay: Hemolytic activity in mouse RBC at 62.5 ug/ml after 1 hr relative to control; assay type: ADME, cell-based; details: erythrocyte, 1 h
[2] = test system: Cryptococcus neoformans; assay: Antifungal activity against Cryptococcus neoformans isolate CN2 measured after 48 hrs by CLSI M27-A3 protocol based method; assay type: functional
[3] = test system: Candida albicans; assay: Antifungal activity against Candida albicans ATCC 64124 measured after 48 hrs by CLSI M27-A3 protocol based method; assay type: functional
[4] = test system: Candida albicans; assay: Antifungal activity against fluconazole/ITC-susceptible Candida albicans ATCC MYA-2876 measured after 48 hrs by CLSI M27-A3 protocol based method; assay type: functional
[5] = test system: Candida albicans; assay: Antifungal activity against fluconazole/ITC-resistant Candida albicans ATCC 90819 measured after 48 hrs by CLSI M27-A3 protocol based method; assay type: functional
[6] = test system: Candida albicans; assay: Antifungal activity against fluconazole/ITC-susceptible Candida albicans ATCC MYA-2310 measured after 48 hrs by CLSI M27-A3 protocol based method; assay type: functional
[7] = test system: Candida albicans; assay: Antifungal activity against fluconazole/ITC-resistant Candida albicans ATCC MYA-1237 measured after 48 hrs by CLSI M27-A3 protocol based method; assay type: functional
[8] = test system: Candida albicans; assay: Antifungal activity against fluconazole/ITC-resistant Candida albicans ATCC MYA-1003 measured after 48 hrs by CLSI M27-A3 protocol based method; assay type: functional
[9] = test system: Nakaseomyces glabratus; assay: Antifungal activity against Candida glabrata ATCC 2001 measured after 48 hrs by CLSI M27-A3 protocol based method; assay type: functional, CBS 138
[10] = test system: Pichia kudriavzevii; assay: Antifungal activity against Candida krusei ATCC 6258 measured after 48 hrs by CLSI M27-A3 protocol based method; assay type: functional
[11] = test system: Candida parapsilosis; assay: Antifungal activity against Candida parapsilosis ATCC 22019 measured after 48 hrs by CLSI M27-A3 protocol based method; assay type: functional
[12] = test system: Aspergillus nidulans; assay: Antifungal activity against Aspergillus nidulans ATCC 38163 measured after 48 hrs by CLSI M38-A2 protocol based method; assay type: functional; details: ATCC 38163, 48 h
[13] = test system: Aspergillus terreus; assay: Antifungal activity against Aspergillus terreus ATCC MYA-3633 measured after 48 hrs by CLSI M38-A2 protocol based method; assay type: functional; details: ATCC MYA-3633, 48 h
[14] = test system: Nakaseomyces glabratus; assay: Antifungal activity against Candida glabrata isolate CG1 measured after 48 hrs by CLSI M27-A3 protocol based method; assay type: functional
[15] = test system: Nakaseomyces glabratus; assay: Antifungal activity against Candida glabrata isolate CG2 measured after 48 hrs by CLSI M27-A3 protocol based method; assay type: functional
[16] = test system: Nakaseomyces glabratus; assay: Antifungal activity against Candida glabrata isolate CG3 measured after 48 hrs by CLSI M27-A3 protocol based method; assay type: functional
[17] = test system: Candida parapsilosis; assay: Antifungal activity against Candida parapsilosis isolate CP1 measured after 48 hrs by CLSI M27-A3 protocol based method; assay type: functional
[18] = test system: Candida parapsilosis; assay: Antifungal activity against Candida parapsilosis isolate CP2 measured after 48 hrs by CLSI M27-A3 protocol based method; assay type: functional
[19] = test system: Cryptococcus neoformans; assay: Antifungal activity against Cryptococcus neoformans isolate CN3 measured after 48 hrs by CLSI M27-A3 protocol based method; assay type: functional
[20] = test system: Candida parapsilosis; assay: Antifungal activity against Candida parapsilosis isolate CP3 measured after 48 hrs by CLSI M27-A3 protocol based method; assay type: functional
[21] = test system: Candida albicans; assay: Antifungal activity against Candida albicans ATCC 10231 measured after 48 hrs in presence of 10% FBS by CLSI M27-A3 protocol based method; assay type: functional
[22] = test system: Candida parapsilosis; assay: Antifungal activity against Candida parapsilosis ATCC 22019 measured after 48 hrs in presence of 10% FBS by CLSI M27-A3 protocol based method; assay type: functional
[23] = test system: Aspergillus nidulans; assay: Antifungal activity against Aspergillus nidulans ATCC 38163 measured after 48 hrs in presence of 10% FBS by CLSI M38-A2 protocol based method; assay type: functional; details: ATCC 38163, 48 h
[24] = test system: Candida albicans; assay: Fungistatic activity against Candida albicans ATCC 10231 at 4 times MIC incubated for 24 hrs by time kill assay; assay type: functional, organism-based
[25] = test system: Candida parapsilosis; assay: Fungistatic activity against Candida parapsilosis ATCC 22019 up to 4 times MIC incubated for 24 hrs by time kill assay; assay type: functional, organism-based
[26] = Hemolytic activity in mouse RBC at 0.48 ug/ml after 1 hr relative to control; assay type: ADME, cell-based, Erythrocyte; details: mouse red blood cells (erythrocytes), read-out: Activity
[27] = Hemolytic activity in mouse RBC at […] ug/ml after 1 hr relative to control; assay type: ADME, cell-based, Erythrocyte; details: mouse red blood cells (erythrocytes), read-out: Activity
[28] = Hemolytic activity in mouse RBC at 1.95 ug/ml after 1 hr relative to control; assay type: ADME, cell-based, Erythrocyte; details: mouse red blood cells (erythrocytes), at 1.95 µg/mL, read-out: Activity
[29] = Hemolytic activity in mouse RBC at 3.9 ug/ml after 1 hr relative to control; assay type: ADME, cell-based, Erythrocyte; details: mouse red blood cells (erythrocytes), read-out: Activity
[30] = Hemolytic activity in mouse RBC at 7.8 ug/ml after 1 hr relative to control; assay type: ADME, cell-based, Erythrocyte; details: mouse red blood cells (erythrocytes), read-out: Activity
[31] = test system: Candida albicans; assay: Induction of membrane permeabilization in Candida albicans ATCC 10231 assessed as membrane disruption at 4 times MIC after 1 hr by propidium iodide staining based fluorescence microscopy; assay type: functional, organism-based
[32] = test system: Candida albicans; assay: Inhibition of Candida albicans ATCC 10231 ERG11 assessed as ergosterol composition of total sterols at 0.12 ug/ml incubated for 10 mins followed by saponification for 2 hrs by GC-MS method (reference value: 100%); parameters: scale not given: the % may be the effect or the level left
[33] = test system: Candida albicans; assay: Inhibition of Candida albicans ATCC 10231 ERG11 assessed as lanosterol composition of total sterols at 0.12 ug/ml incubated for 10 mins followed by saponification for 2 hrs by GC-MS method relative to control; parameters: scale not given: the % may be the effect or the level left
[34] = test system: Candida albicans; assay: Inhibition of Candida albicans ATCC 10231 ERG11 assessed as eburicol composition of total sterols at 0.12 ug/ml incubated for 10 mins followed by saponification for 2 hrs by GC-MS method relative to control; parameters: scale not given: the % may be the effect or the level left
[35] = test system: Candida albicans; assay: Inhibition of Candida albicans ATCC 10231 ERG11 assessed as 14alphamethyl ergosta-8,24(28)-diene-3beta,6alpha-diol composition of total sterols at 0.12 ug/ml incubated for 10 mins followed by saponification for 2 hrs by GC-MS method relative to control; parameters: scale not given: the % may be the effect or the level left

C[C@@H](c1ncncc1F)[C@](O)(Cn1cncn1)c1ccc(F)cc1F [VORICONAZOLE]
Activity [1]: 100% | MIC [2]: 2.76 µM (≈ 0.964 µg/mL) | MIC [3]: 11.2 µM (≈ 3.91 µg/mL) | MIC=<50 [4]: 5.6 µM (≈ 1.96 µg/mL) | MIC [5]: 5.6 µM (≈ 1.96 µg/mL) | MIC [6]: 2.8 µM (≈ 0.978 µg/mL) | MIC [7]: 22.3 µM (≈ 7.79 µg/mL) | MIC [8]: 5.6 µM (≈ 1.96 µg/mL) | MIC [9]: 0.17 to 0.69 µM | MIC=<50 [10]: 0.34 µM (≈ 0.119 µg/mL) | MIC=<50 [11]: <0.06 µM | MIC [12]: 0.34 µM (≈ 0.119 µg/mL) | MIC [13]: 0.34 µM (≈ 0.119 µg/mL) | MIC [14]: 2.76 µM (≈ 0.964 µg/mL) | MIC [15]: 11.2 µM (≈ 3.91 µg/mL) | MIC [16]: >89.9 µM | MIC=<50 [17]: <0.06 µM | MIC=<50 [18]: <0.06 µM | MIC [19]: 0.35 µM (≈ 0.122 µg/mL) | MIC=<50 [20]: <0.06 µM | MIC=<50 [21]: 0.48 mg/L | MIC=<50 [22]: 0.015 mg/L | MIC [23]: 0.12 mg/L | Activity [24]: Active | Activity [25]: Active | hemolysis at 1 h, 0.48 ug/ml [26]: 9% | hemolysis at 1 h, 0.975 ug/ml [27]: 10% | hemolysis at 1 h, 15.6 ug/ml [27]: 3% | hemolysis at 1 h, 1.95 ug/ml [28]: 6% | hemolysis at 1 h, 3.9 ug/ml [29]: 7% | hemolysis at 1 h, 7.8 ug/ml [30]: 11% | Activity [31]: inactive | Activity [32]: 50.8% | Activity [33]: 15.2% | Activity [34]: 1.73% | Activity [35]: 9.86%
